System: MDCK cells
Assay: HGF-induced epithelial-mesenchymal transition / migration of MDCK cells on transwell filters (crystal violet densitometry)
Assay type: cell-based
Conditions: then HGF, percentage like untreated controls (unstimulated cells = maximal effect, HGF only = nil); for inhibition at 10 µM: Canis lupus familiaris, MDCK, 24 h; for Assay Value: 10 μM compound, 24 hours
Method: MDCK cells were seeded at confluency into the wells of a transwell filter in DMEM with 10% fetal bovine serum. Cells were cultured for 24 hours. Test compounds, dissolved in DMSO, were added to each test well to a 10 μM final concentration, and then hepatocyte growth factor (HGF) was then added. The MDCK cells were cultured for 24 hours. Concurrently, controls treated with and without HGF and with no test compounds were also prepared.
After post-HGF addition culturing, transwell filters were prepared by repeated washing using ice cold PBS. The cells were then fixed with paraformaldehyde (3.7%) on ice for 15 minutes to the filters. After fixation, the transwell filters were washed repeatedly with PBS followed by staining with crystal violet for 15 minutes. The transwell filters were washed again with distilled water.
The upper surface of the transwell filters were swabbed using a cotton-tipped probe. The filters were photographed using a gel documentation system. Densitometry measurements were made on the test samples and compared with control samples.

CCC(=O)Nc1ccc(NC(=O)c2cc(OC)c(OC)c(OC)c2)cc1 [Compound B-23]
inhibition at 10 µM (Table 5, 10 μM compound): 29.4%

CN(C)c1ccc(C2CC(=O)Nc3cc4c(cc32)OCO4)cc1 (stereo not drawn) [Compound 80]
Assay Value (Table 2): <5%

Cc1nc(NC(=O)c2ccc(N3CCOCC3)c([N+](=O)[O-])c2)ccc1I [Compound B-13]
Assay Value (Table 4): 29.4%

COc1cc2c(cc1OC)C(c1cc(F)ccc1F)CC(=O)N2 (stereo not drawn) [Compound 72]
Assay Value (Table 2): <5%

O=C1CC(c2ccccc2F)c2cc3c(cc2N1)OCCO3 (stereo not drawn) [Compound 12]
Assay Value (Table 1): 23.4%

Cc1cccc(C2CC(=O)Nc3cc4c(cc32)OCO4)c1 (stereo not drawn) [Compound 85]
Assay Value (Table 2): <5%

O=C1CC(c2ccc(F)cc2F)c2cc3c(cc2N1)OCO3 (stereo not drawn) [Compound 82]
Assay Value (Table 2): <5%

CC(C)c1ccc(C2CC(=O)Nc3cc4c(cc32)OCCO4)cc1 (stereo not drawn) [Compound 79]
Assay Value (Table 2): <5%

Cc1cc(NC(=O)c2cccc([N+](=O)[O-])c2C)c(C)cc1I [Compound B-32]
inhibition at 10 µM (Table 5, 10 μM compound): 36.1%

COc1cc2c(cc1OC)C(c1cccc(Cl)c1Cl)CC(=O)N2 (stereo not drawn) [Compound 13]
Assay Value (Table 1): >5%

NC(=O)c1ccccc1/N=C/c1ccccc1Cl [Compound A-2]
inhibition at 10 µM (Table 3, 10 μM compound): 75.7%

CCOc1ccc(C(=O)Nc2ccc(I)cn2)cc1[N+](=O)[O-] [Compound B-10]
inhibition at 10 µM (Table 4, 10 μM compound): 69.9%

COc1cc(CNc2ccc(C)c(Cl)c2)cc(Br)c1OC [Compound A-19]
inhibition at 10 µM (Table 3, 10 μM compound): > 5%

Cc1c(C(=O)OC2CCCC2C)[nH]c2c1C(=O)CC(c1cccs1)C2 (stereo not drawn) [Compound C-18]
inhibition at 10 µM (Table 6, 10 μM compound): 92.2%

COc1cc(C2CC(=O)Nc3cc4c(cc32)OCCO4)cc(OC)c1O (stereo not drawn) [Compound 32]
Assay Value (Table 1): 88.2%

COc1c(O)cccc1C1CC(=O)Nc2cc3c(cc21)OCO3 (stereo not drawn) [Compound 90]
Assay Value (Table 2): <5%

O=[N+]([O-])c1cccc(S(=O)(=O)Nc2ccc(Cl)c(Cl)c2)c1 [Compound B-35]
inhibition at 10 µM (Table 5, 10 μM compound): 71.1%

COc1cc(C(=O)Nc2ccc(N3CCN(C)CC3)cc2)cc(OC)c1OC [Compound B-28]
inhibition at 10 µM (Table 5, 10 μM compound): 13.7%

COc1ccc(Cl)cc1C1CC(=O)Nc2cc3c(cc21)OCCO3 (stereo not drawn) [Compound 10]
Assay Value (Table 1): 62.9%

COC(=O)c1[nH]c2c(c1C)C(=O)CC(c1cccs1)C2 (stereo not drawn) [Compound C-3]
inhibition at 10 µM (Table 6, 10 μM compound): 84.1%

COc1cc2c(cc1OC)C(c1ccccc1OCc1ccccc1)CC(=O)N2 (stereo not drawn) [Compound 42]
Assay Value (Table 2): <5%

CCOc1c(Br)cc(C2CC(=O)Nc3cc(OC)c(OC)cc32)cc1OC (stereo not drawn) [Compound 39]
Assay Value (Table 2): <5%

COc1cc2c(cc1OC)C(c1cc(OC)c(OC)cc1OC)CC(=O)N2 (stereo not drawn) [Compound 65]
Assay Value (Table 2): <5%

CC(=O)c1cccc(NC(=O)c2ccc(-c3ccccc3)cc2)c1 [Compound B-16]
inhibition at 10 µM (Table 5, 10 μM compound): > 5%

COc1cc(C(=O)Nc2ccc(Nc3ccccc3)cc2)cc(OC)c1OC [Compound B-27]
inhibition at 10 µM (Table 5, 10 μM compound): 13.7%

O=C1CC(c2ccc([N+](=O)[O-])cc2)c2cc3c(cc2N1)CCC3 (stereo not drawn) [Compound 98]
Assay Value (Table 2): <5%

COc1ccc(C2CC(=O)Nc3cc4c(cc32)OCCO4)cc1OC (stereo not drawn) [Compound 15]
Assay Value (Table 1): 12.9%

O=C1CC(c2cccc(F)c2)c2cc3c(cc2N1)OCCO3 (stereo not drawn) [Compound 44]
Assay Value (Table 2): <5%

O=C1CC(c2cc(Br)ccc2F)c2cc3c(cc2N1)OCCO3 (stereo not drawn) [Compound 11]
Assay Value (Table 1): 27.9%

CCOc1cc2c(cc1OCC)C(c1ccccc1F)CC(=O)N2 (stereo not drawn) [Compound 74]
Assay Value (Table 2): <5%

O=C(Nc1ncc(Br)cc1Br)c1cccc([N+](=O)[O-])c1 [Compound B-12]
inhibition at 10 µM (Table 4, 10 μM compound): 42.4%

O=C1CC(c2ccccc2F)c2cc3c(cc2N1)OCCO3 (stereo not drawn) [Compound 69]
Assay Value (Table 2): <5%

O=C(Nc1cccc(Cl)c1)c1ccc(-c2ccccc2)cc1 [Compound B-19]
inhibition at 10 µM (Table 5, 10 μM compound): 93.2%

COc1cccc(C2CC(=O)Nc3cc4c(cc32)OCCO4)c1 (stereo not drawn) [Compound 17]
Assay Value (Table 1): 10.7%

O=C1CC(c2ccc(O)cc2)c2cc3c(cc2N1)OCO3 (stereo not drawn) [Compound 76]
Assay Value (Table 2): <5%

O=C1CC(c2cccc(Br)c2)c2cc3c(cc2N1)CCC3 (stereo not drawn) [Compound 95]
Assay Value (Table 2): <5%

COc1cc2c(cc1OC)C(c1cccc(Cl)c1)CC(=O)N2 (stereo not drawn) [Compound 41]
Assay Value (Table 2): <5%

Cc1cccc(NC(=O)c2ccc(-c3ccccc3)cc2)c1 [Compound B-17]
inhibition at 10 µM (Table 5, 10 μM compound): 30.2%

COc1cc(C(=O)Nc2ccc(N3CCCC3=O)cc2)cc(OC)c1OC [Compound B-24]
inhibition at 10 µM (Table 5, 10 μM compound): 93.2%

Source: US20130158035A1, “[…] COMPOUNDS” (Brigham Young University, priority 2010, published 2013)
